In patent publication US10072011B2, “Substituted bridged urea analogs as sirtuin modulators” (GlaxoSmithKline Intellectual Property (No.2) Limited, priority 2014, dated 2018):

Target: T1, SIRT1 (Homo sapiens, UniProt Q96EB6)
T1 sequence (Q96EB6 1-747): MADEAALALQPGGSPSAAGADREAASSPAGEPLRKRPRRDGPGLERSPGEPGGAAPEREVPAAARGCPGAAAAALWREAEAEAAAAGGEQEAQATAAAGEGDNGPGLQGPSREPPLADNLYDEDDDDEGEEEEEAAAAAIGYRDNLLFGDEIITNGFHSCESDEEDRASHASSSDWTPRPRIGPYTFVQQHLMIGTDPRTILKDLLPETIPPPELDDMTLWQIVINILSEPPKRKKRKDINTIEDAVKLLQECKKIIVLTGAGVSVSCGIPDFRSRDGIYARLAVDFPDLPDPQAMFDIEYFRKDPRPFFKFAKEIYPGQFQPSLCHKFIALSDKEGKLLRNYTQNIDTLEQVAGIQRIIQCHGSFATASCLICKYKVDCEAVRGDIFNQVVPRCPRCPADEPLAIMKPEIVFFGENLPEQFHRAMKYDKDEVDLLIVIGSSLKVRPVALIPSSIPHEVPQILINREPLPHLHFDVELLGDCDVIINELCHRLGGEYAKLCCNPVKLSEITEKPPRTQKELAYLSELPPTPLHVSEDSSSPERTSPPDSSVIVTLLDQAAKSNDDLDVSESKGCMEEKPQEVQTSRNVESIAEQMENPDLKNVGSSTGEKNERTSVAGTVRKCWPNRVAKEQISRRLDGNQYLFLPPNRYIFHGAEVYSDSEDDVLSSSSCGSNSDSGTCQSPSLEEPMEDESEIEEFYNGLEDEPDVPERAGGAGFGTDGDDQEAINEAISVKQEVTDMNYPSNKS
Assay: Trp mass spectrometry assay of SIRT1 activation (Ac-R-H-K-K(Ac)-W-NH2 peptide)
Assay type: biochemical
Settings: Trp peptide 0.5 μM, 120 μM βNAD+, 10 nM SIRT1, 25 min at 25° C.; for TRP MAX RESP (percent maximum fold activation) / Emax: relative to control (100%); for Emax: 25 min, read-out: TRP MAX RESP (percent maximum fold activation)
Procedure: The Trp mass spectrometry assay was conducted as follows. […] The SIRT1 protein was obtained by cloning the SirT1 gene into a T7-promoter containing vector, which was then expressed in BL21(DE3) bacterial cells and purified as described in further detail below. Test compound was added at varying concentrations to this reaction mixture and the resulting reactions were monitored. After the 25 minute incubation with SIRT1, 10 μL of 10% formic acid was added to stop the reaction. The resulting reactions were sealed and frozen for later mass spec analysis. The relative SIRT1 activity was then determined by measuring the amount of O-acetyl-ADP-ribose (OAADPR) formed (or, alternatively, the amount of deacetylated Trp peptide generated) by the NAD-dependent sirtuin deacetylation reaction in the presence of varying concentrations of the test compound versus control reactions lacking the test compound. The degree to which the test agent activated deacetylation by SIRT1 was expressed as EC1.5 (i.e., the concentration of compound required to increase SIRT1 activity by 50% over the control lacking test compound), and Percent Maximum Activation (i.e., the maximum activity relative to control (100%) obtained for the test compound).
This time point was the same as that used for test compounds and, within the linear range, the endpoint represents a change in velocity.
For the above assay, SIRT1 protein was expressed and purified as follows. The SirT1 gene was cloned into a T7-promoter containing vector and transformed into BL21(DE3). The protein was expressed by induction with 1 mM IPTG as an N-terminal His-tag fusion protein at 18° C. overnight and harvested at 30,000×g. Cells were lysed with lysozyme in lysis buffer (50 mM Tris-HCl, 2 mM Tris[2-carboxyethyl]phosphine (TCEP), 10 μM ZnCl2, 200 mM NaCl) and further treated with sonication for 10 min for complete lysis. The protein was purified over a Ni-NTA column (Amersham) and fractions containing pure protein were pooled, concentrated and run over a sizing column (Sephadex S200 26/60 global). The peak containing soluble protein was collected and run on an Ion-exchange column (MonoQ). Gradient elution (200 mM-500 mM NaCl) yielded pure protein. This protein was concentrated and dialyzed against dialysis buffer (20 mM Tris-HCl, 2 mM TCEP) overnight. The protein was aliquoted and frozen at −80° C. until further use.
“NT” means not tested; “ND” means not determinable.

Structure (SMILES)	TRP Activity (EC1.5, concentration of test compound that results in 150% activation of SIRT1)	TRP MAX RESP (percent maximum fold activation)	Emax [%]
O=C(NC(CCO)C(F)(F)F)c1ccc2c(n1)N(C(=O)Nc1ccccn1)[C@H]1CCN2C1 (single isomer, unassigned) [Example 248]	B (EC1.5 1-25 μM)	A (Fold activation≥150%)	
NC(CNC(=O)c1ccc2c(n1)N(C(=O)Nc1ccccn1)[C@H]1CCN2C1)C(F)(F)F (single isomer, unassigned) [Example 249]	B (EC1.5 1-25 μM)		
O=C(N[C@@H]1CC1(F)F)c1ccc2c(n1)N(C(=O)Nc1cnc(OC[C@H](O)CO)cn1)[C@H]1CCN2C1 (single isomer, unassigned) [Example 260]	B (EC1.5 1-25 μM)		> 150
O=C(NC1CC1(F)F)c1ccc2c(n1)N(C(=O)Nc1cc(OCCO)ccn1)[C@H]1CCN2C1 (single isomer, unassigned) [Example 262]	A (EC1.5<1 μM)		> 150
O=C(NC1CC1(F)F)c1ccc2c(n1)N(C(=O)Nc1cc(OCCO)ccn1)[C@H]1CCN2C1 (single isomer, unassigned) [Example 263]	B (EC1.5 1-25 μM)	A (Fold activation≥150%)	
O=C(NC1CC1(F)F)c1ccc2c(n1)N(C(=O)Nc1cccnn1)[C@H]1CCN2C1 (single isomer, unassigned) [Example 270]	A (EC1.5<1 μM)		> 150
O=C(NC1CC1(F)F)c1ccc2c(n1)N(C(=O)Nc1cccnn1)[C@H]1CCN2C1 (single isomer, unassigned) [Example 271]	B (EC1.5 1-25 μM)	A (Fold activation≥150%)	
O=C(NC1CC1(F)F)c1ccc2c(n1)N(C(=O)Nc1cnccn1)[C@H]1CCN2C1 (single isomer, unassigned) [Example 272]	A (EC1.5<1 μM)		> 150
O=C(NC1CC1(F)F)c1ccc2c(n1)N(C(=O)Nc1cnccn1)[C@H]1CCN2C1 (single isomer, unassigned) [Example 273]	B (EC1.5 1-25 μM)	A (Fold activation≥150%)	
COc1ccnc(NC(=O)N2c3nc(C(=O)N[C@@H]4CC4(F)F)ccc3N3CC[C@H]2C3)c1 (single isomer, unassigned) [Example 274]	B (EC1.5 1-25 μM)		> 150
COc1cc(NC(=O)N2c3nc(C(=O)NC4CC4(F)F)ccc3N3CC[C@H]2C3)ncn1 (single isomer, unassigned) [Example 298]	B (EC1.5 1-25 μM)		< 150
C[C@@H](NC(=O)c1ccc2c(n1)N(C(=O)Nc1cc(CCC(O)CO)ccn1)[C@H]1CCN2C1)C(F)(F)F (single isomer, unassigned) [Example 302]	A (EC1.5<1 μM)		< 150
COc1cc(NC(=O)N2c3nc(C(=O)NC4CC4(F)F)ccc3N3CC[C@H]2C3)ncn1 (single isomer, unassigned) [Example 303]	A (EC1.5<1 μM)	B (Fold Activation<150%)	
O=C(NC1CC1(F)F)c1ccc2c(n1)N(C(=O)Nc1cc(OC[C@H](O)CO)ccn1)[C@H]1CCN2C1 (single isomer, unassigned) [Example 306]	B (EC1.5 1-25 μM)	B (Fold Activation<150%)	
NC(CNC(=O)c1ccc2c(n1)N(C(=O)Nc1cc(OC[C@H](O)CO)ccn1)[C@H]1CCN2C1)C(F)(F)F (single isomer, unassigned) [Example 317]	B (EC1.5 1-25 μM)	B (Fold Activation<150%)	
CCC(NC(=O)c1ccc2c(n1)N(C(=O)Nc1ccccn1)[C@H]1CCN2C1)C(F)(F)F (stereo in doubt) [Example 61, (4S)—N5-(pyridin-2-yl)-N7-((S)-1,1,1-trifluorobutan-2-yl)-3,4-dihydro-1,4-methanopyrido[2,3-b][1,4]diazepine-5,7(2H)-dicarboxamide]	A (EC1.5<1 μM)		> 150
O=C(NCC(F)(F)F)c1ccc2c(n1)N(C(=O)Nc1ccccn1)[C@H]1CCN2C1 [Example 1]	A (EC1.5<1 μM)		> 150
O=C(NC1CC1)c1ccc2c(n1)N(C(=O)Nc1ccccn1)[C@H]1CCN2C1 [Example 2, (4S)—N7-cyclopropyl-N5-(pyridin-2-yl)-3,4-dihydro-1,4-methano pyrido[2,3-b][1,4]diazepine-5, 7(2H)-dicarboxamide]	A (EC1.5<1 μM)		> 150
O=C(c1ccc2c(n1)N(C(=O)Nc1ccccn1)[C@H]1CCN2C1)N1CCC(F)(F)C1 [Example 3, (4S)-7-(3,3-difluoropyrrolidine-1-carbonyl)-N-(pyridin-2-yl)-3,4-dihydro-1,4-methanopyrido[2,3-b] [1, 4] diazepine-5(2H)-carboxamide]	B (EC1.5 1-25 μM)		> 150
O=C(NC1CCOCC1)c1ccc2c(n1)N(C(=O)Nc1ccccn1)[C@H]1CCN2C1 [Example 4, (4S)—N-5-(pyridin-2-yl)-N-7-(tetrahydro-2H-pyran-4-yl)-3,4-dihydro-1,4-methanopyrido [2,3-b] [1, 4] diazepine-5, 7(2H)-dicarboxamide]	B (EC1.5 1-25 μM)		> 150
O=C(NC1CCCOC1)c1ccc2c(n1)N(C(=O)Nc1ccccn1)[C@H]1CCN2C1 (stereo partly drawn) [Example 5, (4S)—N-5-(pyridin-2-yl)-N-7-(tetrahydro-2H-pyran-3-yl)-3,4-dihydro-1,4-methanopyrido [2,3-b] [1, 4] diazepine-5, 7(2H)-dicarboxamide]	B (EC1.5 1-25 μM)		> 150
O=C(NC1CCOC1)c1ccc2c(n1)N(C(=O)Nc1ccccn1)[C@H]1CCN2C1 (stereo partly drawn) [Example 6, (4S)—N-5-(pyridin-2-yl)-N-7-(tetrahydrofuran-3-yl)-3,4-dihydro-1,4-methano pyrido [2,3-b] [1, 4] diazepine-5, 7(2H)-dicarboxamide]	B (EC1.5 1-25 μM)		> 150
O=C(NC1CCC1)c1ccc2c(n1)N(C(=O)Nc1ccccn1)[C@H]1CCN2C1 [Example 7, (4S)—N-7-cyclobutyl-N-5-(pyridin-2-yl)-3,4-dihydro-1,4-methanopyrido [2,3-b] [1, 4] diazepine-5, 7(2H)-dicarboxamide]	A (EC1.5<1 μM)		> 150
